# Tests used:
# [1] = target: T1, PI3K-delta (Homo sapiens, UniProt O00329); assay: HTRF PI3K biochemical assay, delta isoform; conditions: form screened (neutral or TFA salt) given, read-out: PI3Kdelta IC50
# T1 construct: purchased Upstate; Millipore 14-604
# [2] = target: T2, PI3K-alpha (Homo sapiens, UniProt P42336); assay: HTRF PI3K biochemical assay, alpha isoform; conditions: ratio PI3K-alpha IC50 value / PI3K-delta IC50 value
# T2 construct: purchased Upstate; Millipore 14-602
# T2 sequence (P42336 whole entry, canonical isoform): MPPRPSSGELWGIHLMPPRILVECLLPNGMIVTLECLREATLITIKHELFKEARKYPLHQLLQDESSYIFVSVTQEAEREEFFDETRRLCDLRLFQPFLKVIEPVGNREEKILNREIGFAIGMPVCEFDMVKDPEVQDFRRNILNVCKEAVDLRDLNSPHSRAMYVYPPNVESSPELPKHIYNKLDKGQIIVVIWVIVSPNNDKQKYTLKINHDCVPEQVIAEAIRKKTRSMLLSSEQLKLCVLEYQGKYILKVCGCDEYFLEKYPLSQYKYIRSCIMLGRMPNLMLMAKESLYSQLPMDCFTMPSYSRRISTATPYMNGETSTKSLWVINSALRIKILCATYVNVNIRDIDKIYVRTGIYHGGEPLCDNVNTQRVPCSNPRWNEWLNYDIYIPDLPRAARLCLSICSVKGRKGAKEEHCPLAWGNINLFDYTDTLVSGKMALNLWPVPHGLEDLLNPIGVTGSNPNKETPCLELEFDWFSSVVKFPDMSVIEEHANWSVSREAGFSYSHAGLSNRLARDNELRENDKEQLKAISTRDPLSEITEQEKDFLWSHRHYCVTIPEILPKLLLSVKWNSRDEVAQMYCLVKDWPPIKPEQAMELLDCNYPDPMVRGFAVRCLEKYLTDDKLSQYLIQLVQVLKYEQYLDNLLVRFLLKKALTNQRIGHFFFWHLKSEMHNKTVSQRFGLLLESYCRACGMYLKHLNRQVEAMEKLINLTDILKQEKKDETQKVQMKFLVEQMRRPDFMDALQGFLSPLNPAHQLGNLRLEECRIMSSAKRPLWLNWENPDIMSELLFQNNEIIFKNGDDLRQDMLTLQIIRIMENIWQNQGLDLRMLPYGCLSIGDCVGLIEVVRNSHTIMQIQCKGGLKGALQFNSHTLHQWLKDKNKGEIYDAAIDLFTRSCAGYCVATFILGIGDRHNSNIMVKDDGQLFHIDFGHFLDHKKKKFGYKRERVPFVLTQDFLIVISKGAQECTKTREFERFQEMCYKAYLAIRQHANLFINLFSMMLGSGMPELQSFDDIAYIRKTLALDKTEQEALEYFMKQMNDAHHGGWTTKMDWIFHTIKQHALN
# T2 sequence (P27986 whole entry partner, canonical isoform): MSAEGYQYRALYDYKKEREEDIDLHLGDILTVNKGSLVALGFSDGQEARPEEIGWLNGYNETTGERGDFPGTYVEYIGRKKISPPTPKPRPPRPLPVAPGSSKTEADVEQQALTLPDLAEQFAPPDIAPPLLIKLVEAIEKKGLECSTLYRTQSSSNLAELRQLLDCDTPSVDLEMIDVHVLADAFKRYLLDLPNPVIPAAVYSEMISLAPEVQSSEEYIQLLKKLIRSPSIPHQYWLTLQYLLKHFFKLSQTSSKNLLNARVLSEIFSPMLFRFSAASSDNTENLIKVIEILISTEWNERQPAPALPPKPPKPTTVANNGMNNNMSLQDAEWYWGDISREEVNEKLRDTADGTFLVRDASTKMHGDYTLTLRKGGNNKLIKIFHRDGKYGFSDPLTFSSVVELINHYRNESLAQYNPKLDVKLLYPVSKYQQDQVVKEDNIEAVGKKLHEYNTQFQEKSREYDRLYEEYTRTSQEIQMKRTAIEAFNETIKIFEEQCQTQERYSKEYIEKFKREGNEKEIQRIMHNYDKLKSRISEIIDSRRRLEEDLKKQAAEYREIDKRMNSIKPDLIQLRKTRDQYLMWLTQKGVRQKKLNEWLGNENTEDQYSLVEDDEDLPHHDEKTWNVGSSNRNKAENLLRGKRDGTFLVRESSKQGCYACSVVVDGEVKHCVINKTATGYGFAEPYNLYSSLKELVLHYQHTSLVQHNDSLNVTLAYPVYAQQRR
# Source text: The PI3-Kinase biochemical assays were developed to measure the intrinsic potency and compound dependent inhibition of the alpha, beta, delta, and gamma PI3K isoform enzymes. This assay was developed and further optimized from a kit produced by Upstate (Millipore catalog #33-047) and has been configured for HTS and SAR screening. Briefly, this procedure exploits the exquisite specificity and high affinity binding of enzyme reaction substrate phosphatidyl(3,4,5)triphosphate (PIP3) to the GRP1 pleckstrin homology (PH) domain to generate the signal. In the absence of PIP3, an HTRF (Homogeneous Time-Resolved Fluorescence energy transfer) complex is formed consisting of europium (Eu)-labeled anti-GST, GSTtagged GRP1-PH domain, biotin-PIP3 and streptavidin conjugated APC. The native PIP3 produced by PI3-Kinase activity disrupts in a competitive manner the biotin-PIP3 from the PH domain, resulting in the loss of energy transfer (HTRF complex) and a decrease in the signal. The format of this assay is the same for all 4 isoforms of PI3K; the differences lie in the concentration of enzyme used to achieve robust assay window. The alpha, beta, and delta assays are run at 0.5, 1, and 0.3 nM enzymes and the gamma assay is run at 5 nM enzyme. The ATP concentration is 100 uM in the alpha, beta, and delta assays and 50 uM ATP in the gamma assay. All reactions are run at 5 uM PIP2.
# Compounds are serially diluted (3-fold in 100% DMSO) across a 384-well polypropylene source plated from column 3 to column 12 and column 13 to column 22, to yield 10 concentration dose response for each test compound. Columns 1, 2, 23 and 24 contain either only DMSO or pharmacological known control inhibitor.
# The PI3-Kinase biochemical assay was optimized using the HTRF kit provided by Upstate (Millipore). The assay kit contains six reagents: 1) 4× Reaction Buffer; 2) native PIP2 (substrate); 3) Stop (EDTA); 4) Detection Mix A (Streptavidin-APC); 5) Detection Mix B (Eu-labeled Anti-GST plus GST-tagged PH-domain); 6) Detection Mix C.
# PI3Kinase Reaction Buffer is prepared by dilution the stock 1:4 with de-ionized water. […] Enzyme addition and compound pre-incubation are initiated by the addition of 1.25 ul of PI3K (at twice its final concentration) in the 1× reaction buffer to all wells using a BioRaptor. Plates are incubated at room temperature for 15 minutes. Reactions are initiated by addition of 1.25 ul of 2× substrate solution (PIP2 and ATP in 1× reaction buffer) using BioRaptor. Plates are incubated in humidified chamber at room temperature for one hour. Reactions are quenched by addition of 0.625 uL of stop solution to all wells using the BioRaptor. The quenched reactions are then processed to detect product formation by adding 0.625 uL of Detection Solution to all wells using the BioRaptor (Detection mix C, Detection Mix A, and Detection Mix B combined together in an 18:1:1 ratio prepared 2 hours prior to use).
# The loss of the HTRF signal is due to the displacement of biotinylated-PIP3 from the PH domain by the PI3K-dependent conversion of PIP2 to PIP3. This loss of signal is nonlinear with respect to both increasing product and time. This non-linear detection will impact accuracy of IC50 calculations; therefore, there is a need for a correction factor to obtain more accurate IC50 values. This correction is derived from a PIP3 standard curve run in a separate assay plate. All data were calculated using the ratio of acceptor (APC) to donor (Europium) fluorescence in each well of the assay plate. […] An IC50 was then calculated fitting the % inhibition data to the equation: % inhibition=min+(Max−min)/1+([inhibitor]/IC50)^n) where min is the % inhibition with inhibitor, max is the signal in DMSO control, and n is the Hill slope.
# The determination of relative selectivity for a given compound is defined as the relative ratio of the (PI3K-alphalC50 value/PI3K-delta IC50 value).
# T1 sequence (O00329 whole entry, canonical isoform): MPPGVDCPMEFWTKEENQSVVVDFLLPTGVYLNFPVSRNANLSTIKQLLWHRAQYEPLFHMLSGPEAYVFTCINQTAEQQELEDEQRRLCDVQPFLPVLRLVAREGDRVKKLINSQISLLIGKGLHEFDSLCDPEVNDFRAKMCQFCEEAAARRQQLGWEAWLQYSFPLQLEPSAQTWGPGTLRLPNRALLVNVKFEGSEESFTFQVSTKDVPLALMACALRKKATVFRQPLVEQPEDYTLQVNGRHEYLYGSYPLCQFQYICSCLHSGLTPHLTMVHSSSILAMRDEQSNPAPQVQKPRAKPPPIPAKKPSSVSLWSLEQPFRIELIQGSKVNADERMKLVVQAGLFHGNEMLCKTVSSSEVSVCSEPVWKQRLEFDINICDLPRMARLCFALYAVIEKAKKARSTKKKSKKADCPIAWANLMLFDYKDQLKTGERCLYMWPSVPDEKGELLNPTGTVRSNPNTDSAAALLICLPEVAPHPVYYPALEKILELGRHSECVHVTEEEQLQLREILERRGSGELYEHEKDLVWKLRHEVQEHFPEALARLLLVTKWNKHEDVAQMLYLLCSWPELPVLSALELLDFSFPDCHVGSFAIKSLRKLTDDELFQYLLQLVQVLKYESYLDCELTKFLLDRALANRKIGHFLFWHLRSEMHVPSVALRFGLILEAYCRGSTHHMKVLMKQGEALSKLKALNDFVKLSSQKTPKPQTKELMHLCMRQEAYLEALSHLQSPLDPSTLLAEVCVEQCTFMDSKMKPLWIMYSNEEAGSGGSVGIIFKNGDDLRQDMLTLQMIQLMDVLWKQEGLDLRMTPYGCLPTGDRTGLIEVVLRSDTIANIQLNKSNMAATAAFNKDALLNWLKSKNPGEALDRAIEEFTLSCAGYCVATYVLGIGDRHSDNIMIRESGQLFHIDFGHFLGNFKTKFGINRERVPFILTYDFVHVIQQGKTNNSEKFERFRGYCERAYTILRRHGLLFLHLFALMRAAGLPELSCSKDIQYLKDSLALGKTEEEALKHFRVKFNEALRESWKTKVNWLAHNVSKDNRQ
# T1 sequence (P27986 whole entry partner, canonical isoform): as the sequence (P27986 whole entry partner, canonical isoform) above
Structure (SMILES),IC50 [1],Selectivity versus PI3Kalpha [2]
"CCn1c(-c2cnc(C)nc2)nc2c(N[C@H]3CCN(C(=O)C4CC45CCCC5)C3)ncnc21 (single isomer, unassigned) [Compound 2-34, 9-ethyl-8-(2-methylpyrimidin-5-yl)-N-[(3S)-1-((R or S)-spiro[2.4]hept-1-ylcarbonyl)pyrrolidin-3-yl]-9H-purin-6-amine]",11 nM,>10
"CCn1c(-c2cnc(C)nc2)nc2c(N[C@H]3C[C@H](C(=O)NCCN(C)C)N(C(=O)C4CC4)C3)ncnc21 [Compound 15-8, (4S)-1-(cyclopropylcarbonyl)-N-[2-(dimethylamino)ethyl]-4-{[9-ethyl-8-(2-methylpyrimidin-5-yl)-9H-purin-6-yl]amino}-D-prolinamide]",8.8 nM,>10
"Cn1c(-c2cnc(C(C)(C)C)s2)nc2c(N[C@H]3CCN(C(=O)OC(C)(C)C)C3)ncnc21 [Compound 1-9, (S)-tert-butyl 3-((8-(2-(tert-butyl)thiazol-5-yl)-9-methyl-9H-purin-6-yl)amino)pyrrolidine-1-carboxylate]",< 1 nM,>10
"CCn1c(-c2cnc(C)nc2)nc2c(N[C@H]3CCN(C(=O)C4CC4)[C@@H]3C)ncnc21 [Compound 2-94, N-[(2R,3S)-1-(cyclopropylcarbonyl)-2-methylpyrrolidin-3-yl]-9-ethyl-8-(2-methylpyrimidin-5-yl)-9H-purin-6-amine]",< 1 nM,>10
"CCn1c(-c2ccc(C(F)(F)F)nc2)nc2c(N[C@H]3CCN(C(=O)C4CC4)C3)ncnc21 [Compound 2-49, N-[(3S)-1-(cyclopropylcarbonyl)pyrrolidin-3-yl]-9-ethyl-8-[6-(trifluoromethyl)pyridin-3-yl]-9H-purin-6-amine]",1 nM,>10
"CCn1c(-c2cnc(C)nc2)nc2c(N[C@H]3C[C@H](C(=O)O)N(C(=O)OC(C)(C)C)C3)ncnc21 [Compound 1-18, (4S)-1-(tert-butoxycarbonyl)-4-{[9-ethyl-8-(2-methylpyrimidin-5-yl)-9H-purin-6-yl]amino}-D-proline]",2 nM,>10
"CCn1c(-c2cnc(C)nc2)nc2c(N[C@H]3CCN(C(=O)C4CCCO4)C3)ncnc21 (single isomer, unassigned) [Compound 2-33, 9-ethyl-8-(2-methylpyrimidin-5-yl)-N-[(3S)-1-((R or S)-tetrahydrofuran-2-ylcarbonyl)pyrrolidin-3-yl]-9H-purin-6-amine]",,>10
"CCC(=O)N1CC[C@H](Nc2ncnc3c2nc(C(F)(F)F)n3CC)C1 [Compound 7-11, 9-ethyl-N-[(3S)-1-propanoylpyrrolidin-3-yl]-8-(trifluoromethyl)-9H-purin-6-amine]",14 nM,>10
"CCn1c(-c2ccc(C(F)(F)F)nc2)nc2c(N[C@H]3CCN(C(=O)C4CCOC4)C3)ncnc21 (single isomer, unassigned) [Compound 2-102, 9-ethyl-N-{(3S)-1-[(3S or 3R)-tetrahydrofuran-3-ylcarbonyl]pyrrolidin-3-yl}-8-[6-(trifluoromethyl)pyridin-3-yl]-9H-purin-6-amine]",,>10
"CCn1ncc(-c2nc3c(N[C@@H]4CCN(C(=O)c5nc(C)oc5C)C4)ncnc3n2C)c1C [Compound 2-2, N-{(3R)-1-[(2,5-dimethyl-1,3-oxazol-4-yl)carbonyl]pyrrolidin-3-yl}-8-(1-ethyl-5-methyl-1H-pyrazol-4-yl)-9-methyl-9H-purin-6-amine]",52 nM,

# Reference: patent US9938281B2 (Merck Sharp & Dohme Corp., priority 2012, dated 2018)
